The text below walks through data of publication PMC6943619, “Synthesis and Pharmacological Evaluation of Hybrids Targeting Opioid and Neurokinin Receptors” (Molecules, 2019).

One may read the Ki as the equilibrium dissociation constant of an inhibitor or competing ligand from its target. A lower Ki goes with higher affinity.

The target in series [1] is T1, human NK1 (Homo sapiens, UniProt P25103). The series can be described thus: Calcium mobilization functional assay, agonist mode, CHONK1 cells. The format is cell-based. The arrangement: expressed in transfected cells; host or cells: CHO cells (gift of Prof. T. Costa, ISS, Rome). The settings on record: for NK1 α ± SEM: efficacy (intrinsic activity), Emax relative to SP. A general note: Calcium flux is commonly read through the fluorescence of an indicator in the cells.

Series [2] has as its system mice. The series can be described thus: Writhing test (acetic acid, acute pain model). The class given is in vivo. The settings on record: 5 mg/kg i.p., single injection 15 min before i.p. acetic acid (0.5%, 10 mL/kg), writhes counted 15 min, saline baseline about 35, average, n = 10. (In general: An intraperitoneal irritant provokes the stretching counted in writhing tests.)
Method: The writhing test was used as an acute pain model. This test involves intraperitoneal (i.p.) injection of acetic acid which results in abdominal constriction, causing the mice to writhe. Peptides or saline (control) were administered i.p. over a concentration range of 0.3 to 5 mg/kg at 15 min before the injection of acetic acid (0.5%, 10 mL/kg). The baseline number of writhes in the saline-treated animals was about 35.
Peptides or vehicle were administered 15 min before the i.p. injection of acetic acid (0.5%, 10 mL/kg). The number of writhes was determined 5 min after acetic acid injection over a period of 15 min. The data represent mean ± SEM, n = 10.
Male Balb/c mice (Animal Facility of Nofer Institute of Occupational Medicine, Lodz, Poland) weighing 22–25 g were used in the study. The animals were housed under standard conditions (22 ± 1 °C, 12 h light/dark cycle) with food and water ad libitum for five days before the experiments.
Antinociceptive activity was assessed by the writhing test. Mice were divided into groups of 10 animals each. A single i.p. injection of saline or a tested compound (at doses 0.3, 1, 3, or 5 mg/kg) was followed (after 15 min) by the i.p. administration of acetic acid (0.65% in 0.9% NaCl, 10 mL/kg) [53]. After 5 min recovery, specific spontaneous behaviors characterized by elongation of the body (“writhes”) were counted for 15 min.

Series [3] deals with T1, human NK1. The series can be described thus: Radioligand binding assay, displacement of [3H][Sar9, Met(O2)11]SP. The settings on record: displacement of [3H][Sar9, Met(O2)11]SP from membranes of CHO cells transfected with human NK1 receptor; 50 mM Tris/HCl pH 7.4, 0.5% BSA, peptidase inhibitors, 2 h at 25 °C; mean ± SEM, n ≥ 3; SEM. The arrangement: purchased PerkinElmer (Krakow, Poland); host or cells: CHO cell membranes. Here is the method:
The binding assay was also used to examine the affinity of the synthesized hybrids for NK1 in commercial membranes of CHO cells stably expressing human NK1.
To determine the affinity of peptide analogs to respective receptors, competition binding experiments were performed, as described in detail elsewhere.
Commercial membranes of CHO cells stably expressing either human ORs or NK1 receptor were used. […] Membranes were incubated in a 0.5 mL volume of 50 mM Tris/HCl (pH = 7.4), 0.5% bovine serum albumin (BSA), with a number of peptidase inhibitors (bacitracin, bestatin, captopril) and various concentrations of radioligands for 2 h at 25 °C.
The pharmacological terminology adopted in this paper is consistent with International Union of Basic and Clinical Pharmacology (IUPHAR) recommendations. Concentration–response curves were analyzed by nonlinear regression using Graph Pad Prism 6.0 (La Jolla, CA, USA). […] Concentration–response curves were fitted with the four-parameter logistic nonlinear regression model (1) Effect=baseline+Emax−baseline/1+10^logEC50−X·n where X is the agonist concentration and n is the Hill coefficient. Ligand efficacy was expressed as intrinsic activity (α) calculated as a ratio of the peptide Emax to the Emax of the standard agonist (Supplementary Materials, Figure S7). […] All statistical analyses were performed using Graph Pad Prism 6.0 (La Jolla, CA, USA). Differences between groups were analyzed with one-way ANOVA and a post hoc multiple comparison by the Student–Newman–Keuls test. A probability level of 0.05 or smaller was used to indicate statistical significance.
A general note: Displacement assays read how much labelled ligand stays bound in the presence of the test substance.

Series [4] relates to mice. The series can be described thus: Tolerance development, writhing test after repeated injections. The conditions noted are these: 5 mg/kg i.p. once daily for seven days, writhing test on Day 7, n = 10. The format is in vivo. Here is the method:
To examine whether mice developed tolerance to hybrids 2 and 4, these analogs and analog 1 for comparison were injected once daily (5 mg/kg) for seven consecutive days. After repeated administration, the antinociceptive effect was determined on Day 7, performing the writhing test as above.
Figure 4 A comparison of the antinociceptive effect of single (Day 1) and repeated (Day 7) i.p. injections of opioid analog 1 and hybrids 2 and 4 at the dose of 5 mg/kg in the writhing test in mice. The data represent mean ± SEM, n = 10. Statistical significance was assessed using one-way ANOVA and a post hoc multiple comparison by the Student–Newman–Keuls test. *** p < 0.001, as compared to control.
Peptides were administered at the highest dose (5 mg/kg) used before in the writhing test. In the experiment, four new groups of animals (10 mice per group, housed in one cage) underwent repeated injections (i.p.) of saline or the tested compounds (Days 1–7). On Day 7, following saline or peptide administration, the writhing test was performed, as described above. The antinociceptive activity of a compound was compared to the activity obtained after a single injection of this compound in the corresponding dose (5 mg/kg).

Series [5] deals with mice. Briefly: Stool collection (stool mass, stool water content). The class given is in vivo. The conditions noted are these: repeated i.p. injections 5 mg/kg, stool collected 90 min after injection on Days 1–6, compared to control group, n = 10. The protocol:
In order to determine the influence of prolonged administration of the tested compounds on gastrointestinal passage, stool was collected for six days from mice used in the tolerance development test.
Figure 5 Effect of repeated i.p. injections of saline and the tested peptides on stool mass (A), stool water content (B), food intake (C), and water consumption (D). The data represent mean ± SEM, n = 10. Statistical significance was assessed using one-way ANOVA and a post hoc multiple comparison by the Student–Newman–Keuls test. *** p < 0.001, as compared to control.
After the i.p. injections of saline or peptides (Days 1–6), mice were placed in a separate clean cages and stool was collected for a period of 90 min. Fecal pellets were collected immediately after expulsion to avoid evaporation and placed in closed 1.5 mL tubes. Tubes were weighed to obtain the wet weight of the stool. Then, the tubes were opened and stool was dried overnight at 65 °C and reweighed to obtain the dry weight. The stool water content was calculated from the difference between the wet and dry stool weights.

A further series deals with T2, human KOR (Homo sapiens, UniProt P41145).
T2 construct: expressed in transfected cells; host or cells: CHO cells (University of Ferrara), co-expressing Gαqi5
The series can be described thus: Calcium mobilization functional assay, agonist mode. The class given is cell-based. The settings on record: for KOR α ± SEM: efficacy (intrinsic activity), Emax relative to dynorphin A, mean ± SEM.

[6] abbreviates: CHO cells co-expressing human KOR and Gαqi5, n = 5.

Like-named read-outs stand apart in the source and are kept apart here. Where a SMILES comes first, the peptide text is derived from it. Bridges are numbered along the chain shown (N, C = ends). [ ]: non-standard residue; d: D form. Nle = CCCC[C@H](N)C(=O)O

T1 sequence (P25103 whole entry): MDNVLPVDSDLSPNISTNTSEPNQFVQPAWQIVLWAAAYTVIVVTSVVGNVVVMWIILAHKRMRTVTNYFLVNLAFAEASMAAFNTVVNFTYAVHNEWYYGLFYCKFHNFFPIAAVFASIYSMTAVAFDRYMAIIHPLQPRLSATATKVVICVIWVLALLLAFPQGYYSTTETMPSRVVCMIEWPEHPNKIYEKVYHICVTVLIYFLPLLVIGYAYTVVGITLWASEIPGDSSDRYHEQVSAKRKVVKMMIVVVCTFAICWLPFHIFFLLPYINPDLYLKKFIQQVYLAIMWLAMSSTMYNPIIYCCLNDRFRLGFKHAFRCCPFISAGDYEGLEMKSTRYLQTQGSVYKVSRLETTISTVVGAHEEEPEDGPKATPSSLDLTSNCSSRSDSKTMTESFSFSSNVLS
T2 sequence (P41145 whole entry): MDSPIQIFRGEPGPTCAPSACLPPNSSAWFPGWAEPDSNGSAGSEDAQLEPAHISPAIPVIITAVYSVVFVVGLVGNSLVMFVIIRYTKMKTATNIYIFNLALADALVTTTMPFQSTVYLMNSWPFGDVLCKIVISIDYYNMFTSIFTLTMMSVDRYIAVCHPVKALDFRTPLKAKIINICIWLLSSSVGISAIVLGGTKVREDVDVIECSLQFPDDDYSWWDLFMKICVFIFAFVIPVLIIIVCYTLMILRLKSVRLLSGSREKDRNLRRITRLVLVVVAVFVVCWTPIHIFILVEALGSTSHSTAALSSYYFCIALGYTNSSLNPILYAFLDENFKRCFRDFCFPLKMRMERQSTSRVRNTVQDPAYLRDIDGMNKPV

With `CSCC[C@H](NC(=O)[C@H](CC(C)C)NC(=O)CNC(=O)[C@H](Cc1ccccc1)NC(=O)[C@H](Cc1ccccc1)NC(=O)[C@H](CCC(N)=O)NC(=O)[C@@H]1CC(=O)NCCCC[C@@H](NC(=O)[C@@H](N)Cc2ccc(O)cc2)C(=O)N[C@@H](Cc2ccccc2)C(=O)N[C@@H](Cc2ccccc2)C(=O)N1)C(N)=O` [compound 4, Tyr-[D-Lys-Phe-Phe-Asp]-Gln-Phe-Phe-Gly-Leu-Met-NH2] (H-Y[dK]FFDQFFGLM-NH2; lactam 2-5), the results for the EC50 on human NK1 [1] and at human KOR were 0.00355 µM and 0.0141 µM, respectively. Further, the “lower potency at NK1 than SP” value at human NK1 [1] (calcium mobilization, CHONK1 cells, from pEC50 values) is reported as “fourfold”. Moreover, the “NK1 α ± SEM” value on human NK1 [1] (CHONK1 cells, N = 5, SEM) is on record as 0.96 ± 0.05. Moreover, in the series with mice [2], the number of writhes was 4.5. For the same compound, the Ki at human NK1 [3] was determined as 0.0156 ± 0.00123 µM. Moreover, the “tolerance development (analgesic activity on Day 7 versus Day 1)” value with mice [4] was “did not cause tolerance development”. Also, the “stool mass (constipation)” value with mice [5] is “no statistically significant differences”. Also, at human KOR (setting [6]), the “KOR α ± SEM” value is listed as 0.92 ± 0.05.

For `CCCC[C@H](NC(=O)[C@H](CC(C)C)NC(=O)[C@@H](Cc1c[nH]c2ccccc12)NC(=O)[C@H](Cc1ccccc1)NC(=O)[C@@H](Cc1c[nH]c2ccccc12)NC(=O)[C@H](CC(N)=O)NC(=O)[C@@H]1CC(=O)NCCCC[C@@H](NC(=O)[C@@H](N)Cc2ccc(O)cc2)C(=O)N[C@@H](Cc2ccccc2)C(=O)N[C@@H](Cc2ccccc2)C(=O)N1)C(N)=O` [compound 2, Tyr-[D-Lys-Phe-Phe-Asp]-Asn-D-Trp-Phe-D-Trp-Leu-Nle-NH2] (H-Y[dK]FFDN[dW]F[dW]L[Nle]-NH2; lactam 2-5), at human NK1 [1] (CHO cells expressing human NK1 (CHONK1), Fluo-4 AM calcium signal, N = 5), the “NK1 pEC50 (CL95%)” value was “Inactive”. For the same compound, on human NK1 [1] (CHONK1 cells, N = 5), the “NK1 α ± SEM” value is “Inactive”. Moreover, the number of writhes in the series on mice [2] turned out to be 12.4. At human NK1 [3], this compound returned a Ki of 0.0105 ± 0.0006 µM. For the same compound, the “tolerance development (analgesic activity on Day 7 versus Day 1)” value in the series on mice [4] is “did not cause tolerance development”. Moreover, the “stool mass (constipation)” value with mice [5] is listed as “no statistically significant differences”. Besides, the EC50 on human KOR (CHO cells co-expressing human KOR and Gαqi5, Fluo-4 AM calcium signal, n = 5, read-out: KOR pEC50 (CL95%) (converted)) was 0.00977 µM. On human KOR (setting [6]), the “KOR α ± SEM” value stood at 0.99 ± 0.05.
